Earlier results in article PMC5404532, “Simplified Reversed Chloroquines To Overcome Malaria Resistance to Quinoline-Based Drugs” (Antimicrobial Agents and Chemotherapy, 2017).
Where two headings read alike, the source gives them in different places.

Assays:
P. falciparum 7G8 (CQR) = details: CQR 7G8, cited from earlier work
P. falciparum Dd2 (CQR) = details: cited from earlier work
mouse spleen lymphocytes = details: cited from earlier work
P. falciparum D6 (CQS) = details: cited from earlier work

| Structure (SMILES) | IC50 (P. falciparum 7G8 (CQR); ref Burgess et al. (33)) | IC50 (P. falciparum Dd2 (CQR); ref Burgess et al. (33)) | Cytotoxicity (mouse spleen lymphocytes; ref Burgess et al. (33)) | IC50 (P. falciparum D6 (CQS); ref Burgess et al. (33)) | IC50 (P. falciparum 7G8 (CQR); ref Burgess et al. (31)) | IC50 (P. falciparum Dd2 (CQR); ref Burgess et al. (31)) | Cytotoxicity (mouse spleen lymphocytes; ref Burgess et al. (31)) | IC50 (P. falciparum D6 (CQS); ref Burgess et al. (31)) |
| --- | --- | --- | --- | --- | --- | --- | --- | --- |
| Clc1ccc2c(NCCCN3CCN(C(c4ccccc4)c4ccccc4)CC3)ccnc2c1 [Compound 3] | 11 nM | 2.6 nM | 1,100 nM | 1.9 nM |  |  |  |  |
| CN(CCCNc1ccnc2cc(Cl)ccc12)CCCN1c2ccccc2CCc2ccccc21 [Compound 1] |  |  |  |  | 4 nM | 5.3 nM | 700 nM | 2.9 nM |
| Clc1ccc2c(NCCCN3CCNCC3)ccnc2c1 [Compound 16] |  | 6.8 nM | 23,000 nM | 4.3 nM |  |  |  |  |
